Among the data in patent US11752105B2, “Spray drying process with continuous preparation of spray solution” (Hovione Scientia Limited, priority 2018, dated 2023) are Continuous dissolution values, retold here.

The series is described as follows: Continuous solution preparation: suspension passed through series of five micro-reactors (continuous dissolution). Format: physicochemical. The conditions noted are these: solvent H2O; concentration 0.3 % wt. The text has this:
The resulting suspension was continuously passed through a series of five micro-reactors with microchannels having 500 micron diameter by means of an intensifier pump (MicroDeBEE) at a pressure of 1862 bar. […] The same experiment was repeated with the same setup for other pharmaceutical excipients and solvents. Trihalose is crystalline form and was used as a model for crystalline molecules to mimic API's.

With `CC(C)C[C@H](N)C(=O)O` [L-Leucine], the Continuous dissolution entry is given as “YES”.
